Experimental data taken from patent US10799507B2, “5-(7H-pyrrolo[2,3-d]pyrimidin-4-yl)-5-azaspiro[2.5]octane-8-carboxylic acid derivatives as novel JAK kinase inhibitors” (LEO Pharma A/S, priority 2017, dated 2020).
pEC50: −log10 of the molar value.

How the values were obtained:
Type in all cases: biochemical
TYK2 = TYK2 (Homo sapiens (Human), UniProt P29597); experiment: JAK kinase assay (HTRF), TYK2; conditions: catalytic domain, ATP at Km (13 μM)
Method: (§1) Human baculovirus-expressed JAK1, 2, 3 and TYK2 were purchased from Carna Biosciences, Inc. All four purified enzymes contain only the catalytic domain. JAK1 (aa 850-1154) and TYK2 (aa 871-1187) are expressed with an N-terminally fused GST-tag, and JAK2 and JAK3 with an N-terminally fused His-tag.
(§2) Inhibition of phosphorylation of a synthetic peptide was measured in an HTRF-based assay using the TK substrate-Biotin from the Cisbio HTRFKinEASE TK kit. First, 2 μl of TK solution (TK substrate-biotin in kinase buffer [1× enzymatic buffer from HTRFKinEASE TK kit, 1 mM DTT]) is added to a plate containing 1 μl prediluted compound (final assay concentration DMSO: 0.75%). Then, 5 μl kinase-ATP mix (prepared in kinase buffer) is added to the wells and the plates are incubated at RT for 20-30 min. For all four kinases a concentration of ATP that corresponded to the Km for ATP was used. The final concentrations of buffers, substrate, kinase and ATP were: JAK1: 50 mM Hepes buffer pH 7.0, 0.01% BSA, 10 mM MgCl2, 1 mM DTT, 7 μM ATP, 50 nM SEB, 1 μM TK Substrate-Biotin and 5 ng JAK1; JAK2: 50 mM Hepes buffer pH 7.0, 0.01% BSA, 5 mM MgCl2, 1 mM DTT, 4 μM ATP, 1 μM TK Substrate-Biotin and 0.1 ng JAK2; JAK3: 50 mM Hepes buffer pH 7.0, 0.01% BSA, 5 mM MgCl2, 1 mM DTT, 2 μM ATP, 1 μM TK Substrate-Biotin and 0.3 ng JAK3; TYK2: 50 mM Hepes buffer pH 7.0, 0.01% BSA, 5 mM MgCl2, 1 mM DTT, 13 μM ATP, 50 nM SEB, 1 μM TK Substrate-Biotin and 0.8 ng TYK2. Thereafter, the kinase reaction is stopped by adding 4 μl detection mix (final concentrations: 50 mM Hepes buffer pH 7.0, 0.01% BSA, 0.8 M KF, 20 mM EDTA, 42 nM Streptavidin-XL665 and 1:400 STK Ab Cryptate) and the plates are incubated overnight in the dark. The HTRF signal is read using an Envision plate reader.
(§3) In Table 1 selected JAK kinase inhibitory activities are listed along with analytical tR and observed M+H^+ data (UPLC-MS method 7).

JAK2 = JAK2 (Homo sapiens (Human), UniProt O60674); experiment: JAK kinase assay (HTRF), JAK2; conditions: catalytic domain, ATP at Km (4 μM)
JAK2, sequence (O60674 849-1124): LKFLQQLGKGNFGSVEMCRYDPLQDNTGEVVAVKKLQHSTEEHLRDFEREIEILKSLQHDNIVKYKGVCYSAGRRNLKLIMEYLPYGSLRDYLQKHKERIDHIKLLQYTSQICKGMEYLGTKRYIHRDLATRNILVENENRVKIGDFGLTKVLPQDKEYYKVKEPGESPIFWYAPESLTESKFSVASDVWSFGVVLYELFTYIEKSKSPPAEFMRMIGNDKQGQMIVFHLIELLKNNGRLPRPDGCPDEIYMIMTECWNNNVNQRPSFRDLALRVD
Method: as §1, §2

JAK3 = JAK3 (Homo sapiens (Human), UniProt P52333); experiment: JAK kinase assay (HTRF), JAK3; conditions: catalytic domain, ATP at Km (2 μM)
JAK3, sequence (P52333 822-1111): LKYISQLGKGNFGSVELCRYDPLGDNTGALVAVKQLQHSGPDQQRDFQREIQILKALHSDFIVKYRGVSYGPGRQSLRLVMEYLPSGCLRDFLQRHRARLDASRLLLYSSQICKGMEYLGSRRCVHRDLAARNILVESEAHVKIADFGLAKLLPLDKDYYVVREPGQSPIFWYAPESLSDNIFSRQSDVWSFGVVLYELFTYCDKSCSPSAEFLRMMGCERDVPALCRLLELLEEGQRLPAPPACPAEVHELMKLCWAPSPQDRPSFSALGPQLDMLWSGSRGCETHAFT
Method: as §1, §2, §3

JAK1 = JAK1 (Homo sapiens (Human), UniProt P23458); experiment: JAK kinase assay (HTRF), JAK1; conditions: catalytic domain, ATP at Km (7 μM)
JAK1, sequence (P23458 850-1154): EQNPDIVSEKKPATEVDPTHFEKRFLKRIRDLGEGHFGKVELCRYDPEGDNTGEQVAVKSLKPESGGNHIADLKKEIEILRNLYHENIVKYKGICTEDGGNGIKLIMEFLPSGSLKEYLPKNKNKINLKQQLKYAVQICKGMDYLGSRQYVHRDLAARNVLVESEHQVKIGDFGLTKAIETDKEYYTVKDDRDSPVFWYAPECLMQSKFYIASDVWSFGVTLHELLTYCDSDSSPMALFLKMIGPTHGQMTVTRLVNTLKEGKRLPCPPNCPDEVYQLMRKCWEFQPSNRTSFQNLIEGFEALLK
Method: as §1, §2

TYK2, sequence (P29597 871-1187): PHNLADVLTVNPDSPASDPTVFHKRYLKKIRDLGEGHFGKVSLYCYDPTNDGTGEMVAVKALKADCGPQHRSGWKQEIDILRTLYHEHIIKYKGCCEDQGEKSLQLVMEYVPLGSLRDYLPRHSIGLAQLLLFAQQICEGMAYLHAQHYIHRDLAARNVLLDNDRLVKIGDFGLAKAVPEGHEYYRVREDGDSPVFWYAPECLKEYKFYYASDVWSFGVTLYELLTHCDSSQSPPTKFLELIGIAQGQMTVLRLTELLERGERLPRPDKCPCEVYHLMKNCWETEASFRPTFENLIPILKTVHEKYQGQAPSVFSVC

Compound	pEC50 (TYK2)	pEC50 (JAK2)	pEC50 (JAK3)	pEC50 (JAK1)
O=C(NCc1cccnc1)C1CCN(c2ncnc3[nH]ccc23)CC12CC2 (stereo not shown) [Example 128, N-(3-pyridylmethyl)-5-(7H-pyrrolo[2,3-d]pyrimidin-4-yl)-5-azaspiro[2.5]octane-8-carboxamide]	5.85	7.42	7.23	7.69
O=C(N[C@H](CO)C(=O)OCC1CCCC1)[C@H]1CCN(c2ncnc3[nH]ccc23)CC12CC2 [Example 87, cyclopentylmethyl (2R)-3-hydroxy-2-[[(8S)-5-(7H-pyrrolo[2,3-d]pyrimidin-4-yl)-5-azaspiro[2.5]octane-8-carbonyl]amino]propanoate]	6.91	7.59	7.37	8.14
O=C(NCC1CC(F)(F)C1)[C@H](O)CNC(=O)[C@H]1CCN(c2ncnc3[nH]ccc23)CC12CC2 (single isomer, unassigned) [Example 130]	6.31	7.34	7.29	7.63
COc1cc(F)ccc1[C@H](CO)NC(=O)[C@H]1CCN(c2ncnc3[nH]ccc23)CC12CC2 [Example 109, (8S)-N-[(1R)-1-(4-fluoro-2-methoxy-phenyl)-2-hydroxy-ethyl]-5-(7H-pyrrolo[2,3-d]pyrimidin-4-yl)-5-azaspiro[2.5]octane-8-carboxamide]	6.61	7.61	6.95	7.98
O=C(NCC1CCC1)C1CCN(c2ncnc3[nH]ccc23)CC12CC2 (stereo not shown) [Example 115, N-(cyclobutylmethyl)-5-(7H-pyrrolo[2,3-d]pyrimidin-4-yl)-5-azaspiro[2.5]octane-8-carboxamide]	6.44	7.63	7.03	7.91
COc1cc(C#N)ccc1[C@H](CO)NC(=O)[C@H]1CCN(c2ncnc3[nH]ccc23)CC12CC2 [Example 120, (8S)-N-[(1R)-1-(4-cyano-2-methoxy-phenyl)-2-hydroxy-ethyl]-5-(7H-pyrrolo[2,3-d]pyrimidin-4-yl)-5-azaspiro[2.5]octane-8-carboxamide]	6.41	7.40	6.81	7.86
N#Cc1ccc([C@@H](CO)NC(=O)[C@H]2CCN(c3ncnc4[nH]ccc34)CC23CC3)nc1 [Example 108, (8S)-N-[(1S)-1-(5-cyano-2-pyridyl)-2-hydroxy-ethyl]-5-(7H-pyrrolo[2,3-d]pyrimidin-4-yl)-5-azaspiro[2.5]octane-8-carboxamide]	6.46	7.32	7.07	7.99
C[C@@H](NC(=O)C1CCN(c2ncnc3[nH]ccc23)CC12CC2)c1cccc(F)c1 (stereo partly drawn) [Example 134, N-[(1R)-1-(3-fluorophenyl)ethyl]-5-(7H-pyrrolo[2,3-d]pyrimidin-4-yl)-5-azaspiro[2.5]octane-8-carboxamide]		7.09	6.77	7.48
CC(NC(=O)C1CCN(c2ncnc3[nH]ccc23)CC12CC2)c1ccc(F)cc1 (stereo not shown) [Example 61, N-[1-(4-fluorophenyl)ethyl]-5-(7H-pyrrolo[2,3-d]pyrimidin-4-yl)-5-azaspiro[2.5]octane-8-carboxamide]		8.14	7.66	8.37
N#Cc1cccc(CNC(=O)C2CCN(c3ncnc4[nH]ccc34)CC23CC3)c1 (stereo not shown) [Example 70, N-[(3-cyanophenyl)methyl]-5-(7H-pyrrolo[2,3-d]pyrimidin-4-yl)-5-azaspiro[2.5]octane-8-carboxamide]		8.07	7.49	8.26
COc1ccc([C@@H](C)NC(=O)C2CCN(c3ncnc4[nH]ccc34)CC23CC3)cc1F (stereo partly drawn) [Example 124, N-[(1R)-1-(3-fluoro-4-methoxy-phenyl)ethyl]-5-(7H-pyrrolo[2,3-d]pyrimidin-4-yl)-5-azaspiro[2.5]octane-8-carboxamide]		7.22	6.84	7.73
COc1cc(F)ccc1[C@@H](C)NC(=O)C1CCN(c2ncnc3[nH]ccc23)CC12CC2 (stereo partly drawn) [Example 131, N-[(1R)-1-(4-fluoro-2-methoxy-phenyl)ethyl]-5-(7H-pyrrolo[2,3-d]pyrimidin-4-yl)-5-azaspiro[2.5]octane-8-carboxamide]		7.52	6.61	7.61
COc1ccc([C@H](C)NC(=O)C2CCN(c3ncnc4[nH]ccc34)CC23CC3)cc1 (stereo partly drawn) [Example 66, N-[(1S)-1-(4-methoxyphenyl)ethyl]-5-(7H-pyrrolo[2,3-d]pyrimidin-4-yl)-5-azaspiro[2.5]octane-8-carboxamide]		8.08	7.39	8.32
C[C@@H](NC(=O)C1CCN(c2ncnc3[nH]ccc23)CC12CC2)c1ccc(F)c(F)c1 (stereo partly drawn) [Example 113, N-[(1R)-1-(3,4-difluorophenyl)ethyl]-5-(7H-pyrrolo[2,3-d]pyrimidin-4-yl)-5-azaspiro[2.5]octane-8-carboxamide]		7.71	7.29	7.94
COc1cncc([C@@H](C)NC(=O)C2CCN(c3ncnc4[nH]ccc34)CC23CC3)c1 (stereo partly drawn) [Example 144, N-[(1R)-1-(5-methoxy-3-pyridyl)ethyl]-5-(7H-pyrrolo[2,3-d]pyrimidin-4-yl)-5-azaspiro[2.5]octane-8-carboxamide]		7.09	6.80	7.31
COc1cc([C@@H](C)NC(=O)C2CCN(c3ncnc4[nH]ccc34)CC23CC3)ccc1F (stereo partly drawn) [Example 143, N-[(1R)-1-(4-fluoro-3-methoxy-phenyl)ethyl]-5-(7H-pyrrolo[2,3-d]pyrimidin-4-yl)-5-azaspiro[2.5]octane-8-carboxamide]		7.04	6.70	7.35
C[C@H](NC(=O)[C@H]1CCN(c2ncnc3[nH]ccc23)CC12CC2)[C@@H](O)c1cccc(F)c1 [Example 150, (8S)-N-[(1S,2S)-2-(3-fluorophenyl)-2-hydroxy-1-methyl-ethyl]-5-(7H-pyrrolo[2,3-d]pyrimidin-4-yl)-5-azaspiro[2.5]octane-8-carboxamide]	7.68		8.51	8.57
COc1cccc([C@@H](C)NC(=O)C2CCN(c3ncnc4[nH]ccc34)CC23CC3)c1 (stereo partly drawn) [Example 139, N-[(1R)-1-(3-methoxyphenyl)ethyl]-5-(7H-pyrrolo[2,3-d]pyrimidin-4-yl)-5-azaspiro[2.5]octane-8-carboxamide]		7.21	7.00	7.41
C[C@@H](NC(=O)C1CCN(c2ncnc3[nH]ccc23)CC12CC2)c1cccc(C#N)c1 (stereo partly drawn) [Example 117, N-[(1R)-1-(3-cyanophenyl)ethyl]-5-(7H-pyrrolo[2,3-d]pyrimidin-4-yl)-5-azaspiro[2.5]octane-8-carboxamide]		7.67	7.13	7.91
C[C@H](NC(=O)[C@H]1CCN(c2ncnc3[nH]ccc23)CC12CC2)[C@@H](O)c1cccnc1 [Example 151, (8S)-N-[(1S,2S)-2-hydroxy-1-methyl-2-(3-pyridyl)ethyl]-5-(7H-pyrrolo[2,3-d]pyrimidin-4-yl)-5-azaspiro[2.5]octane-8-carboxamide]	6.74		7.53	7.96
N#Cc1ccc([C@H](O)CNC(=O)[C@@H]2CCN(c3ncnc4[nH]ccc34)CC23CC3)cc1 [Example 142, (8R)-N-[(2S)-2-(4-cyanophenyl)-2-hydroxy-ethyl]-5-(7H-pyrrolo[2,3-d]pyrimidin-4-yl)-5-azaspiro[2.5]octane-8-carboxamide]		6.75	6.56	7.37
C[C@@H](NC(=O)C1CCN(c2ncnc3[nH]ccc23)CC12CC2)c1ccc(F)c(C#N)c1 (stereo partly drawn) [Example 123, N-[(1R)-1-(3-cyano-4-fluoro-phenyl)ethyl]-5-(7H-pyrrolo[2,3-d]pyrimidin-4-yl)-5-azaspiro[2.5]octane-8-carboxamide]		7.67	7.19	7.79
C[C@H](NC(=O)[C@H]1CCN(c2ncnc3[nH]ccc23)CC12CC2)[C@@H](O)c1ccccc1 [Example 152, (8S)-N-[(1S,2S)-2-hydroxy-1-methyl-2-phenyl-ethyl]-5-(7H-pyrrolo[2,3-d]pyrimidin-4-yl)-5-azaspiro[2.5]octane-8-carboxamide]	7.56		8.24	8.57
